These results are taken from patent US20240025880A1 (CHIESI FARMACEUTICI S.P.A., priority 2020, published 2024).

Molecules are shown by their SMILES. Structures can show the parent of a compound that is named as a salt. Where two headings read alike, the source gives them in different places.

For one assay, the target named is T1, h P2X3 (Homo sapiens, UniProt P56373).
T1 sequence (P56373 1-397): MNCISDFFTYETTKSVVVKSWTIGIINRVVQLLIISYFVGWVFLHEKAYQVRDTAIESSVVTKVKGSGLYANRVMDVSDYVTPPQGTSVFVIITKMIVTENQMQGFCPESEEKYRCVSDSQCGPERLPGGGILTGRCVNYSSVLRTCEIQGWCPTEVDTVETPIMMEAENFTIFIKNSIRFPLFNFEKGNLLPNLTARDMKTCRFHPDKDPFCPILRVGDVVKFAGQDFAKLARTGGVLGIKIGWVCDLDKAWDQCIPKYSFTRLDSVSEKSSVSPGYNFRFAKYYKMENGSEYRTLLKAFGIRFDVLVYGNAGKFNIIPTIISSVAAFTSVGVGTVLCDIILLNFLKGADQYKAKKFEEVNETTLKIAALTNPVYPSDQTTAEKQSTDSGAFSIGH
Kind of assay: In vitro electrophysiology assay for P2X3 (automated whole-cell patch clamp, α,β-MeATP agonist). Conditions: 800 nM α,β-MeATP, peak current, read-out: h P2X3 (pIC50 range of activity) (converted). Format: cell-based. The procedure, abridged:
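Automated whole-cell patch clamp of P2X3-expressing cells at −60 mV, room temperature, pH 7.4 bath with CsF internal solution. Antagonist preincubated 10 min, then co-applied with 800 nM α,β-MeATP; peak current inhibition versus second agonist response, ten concentrations, IC50 from four-parameter fit.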

Another assay has as its target T2, h P2X2/3 (Homo sapiens, UniProt P56373+Q9UBL9).
T2 construct: host or cells: cells not described; same protocol as the P2X3 assay
T2 sequence (P56373 1-397): T1 sequence (P56373 1-397)
T2 sequence (Q9UBL9 1-471): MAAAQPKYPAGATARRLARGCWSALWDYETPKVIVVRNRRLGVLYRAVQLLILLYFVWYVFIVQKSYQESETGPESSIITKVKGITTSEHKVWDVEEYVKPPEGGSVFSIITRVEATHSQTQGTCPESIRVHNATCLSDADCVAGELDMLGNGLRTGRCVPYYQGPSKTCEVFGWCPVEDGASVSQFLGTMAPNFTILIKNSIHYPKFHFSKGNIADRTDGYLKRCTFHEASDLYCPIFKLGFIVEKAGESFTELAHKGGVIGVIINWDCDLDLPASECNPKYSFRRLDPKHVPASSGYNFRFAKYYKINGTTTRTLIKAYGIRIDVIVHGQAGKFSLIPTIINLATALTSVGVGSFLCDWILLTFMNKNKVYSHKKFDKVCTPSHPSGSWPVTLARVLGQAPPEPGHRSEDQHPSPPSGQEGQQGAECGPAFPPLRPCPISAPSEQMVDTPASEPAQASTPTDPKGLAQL
Kind of assay: In vitro electrophysiology assay for P2X2/3 (same protocol, 10 μM ATP agonist). Format: cell-based. The note with it: Table 3, mean current seven seconds after agonist, read-out: h P2X2/3 (pIC50 range of activity) (converted). How it is done: Cells expressing P2X3 receptors were grown according to standard practice and maintained at 37° C. in a 5% humidified CO2 atmosphere. The cells were seeded into T175 flask 2 days prior to the day of the assay and dissociated from the flasks using TrypLE when grown to confluence of 80-90%. The dissociated cells were resuspended in serum free media at a cell density of 3×10^6 cells/ml and loaded onto the Sophion Qube automated patch-clamp system. The extracellular assay buffer contained 145 mM NaCl, 4 mM KCl, 2 mM CaCl2, 1 mM MgCl2, 10 mM HEPES, and 10 mM glucose at pH 7.4. The intracellular assay solution contained 140 mM CsF, 10 mM NaCl, 10 mM EGTA, 10 mM HEPES at pH 7.2. Agonist stock solutions were prepared in H2O and diluted in bath solution prior to use. All antagonists were prepared as 10 mM stock solutions in DMSO and diluted in bath solution prior to use. All experiments were performed under the whole-cell patch clamp configuration at room temperature with 384 individual cells being voltage clamped at −60 mV simultaneously on the Sophion Qube instrument. Two baseline responses were established with the application of α,β-MeATP (800 nM), with the subsequent agonist applications being washed out using extracellular assay buffer containing 0.5 U/ml apyrase. Following the second agonist application, antagonist was incubated in the absence of α,β-MeATP for 10 minutes. After antagonist preincubation, 800 nM α,β-MeATP and antagonist were co-administered to determine the inhibitory effect of the antagonist. One concentration of an antagonist was assessed against a single cell, with different concentrations of the antagonist applied to other cells on the 384 recording substrate. The control P2X3 current amplitude was taken from the peak current amplitude from the second agonist response prior to preincubation with antagonist. The peak P2X3 current amplitude in the presence of antagonist was used to calculate the inhibitory effect at each concentration of the antagonist according to the following equation: […]
In vitro Electrophysiology Assay for P2X2/3
Representative compound of the present invention have been also tested for P2X2/3 receptor.
The same assay protocol was used for the P2X2/3 assay as the P2X3 assay with two modifications: 1) 10 μM ATP was used as the agonist; and 2) the mean current amplitude was measured seven seconds after the application of agonist.

With `COC(=O)C1(NC(=O)COc2cc(-c3ccc(F)cc3)cc3c(N[C@H](C)c4cnc(C(F)(F)F)nc4)ncnc23)CC1` [Example 43, Methyl (R)-1-(2-((6-(4-fluorophenyl)-4-((1-(2-(trifluoromethyl)pyrimidin-5-yl)ethyl)amino)quinazolin-8-yl)oxy)acetamido) cyclopropane-1-carboxylate], the IC50 is 0.316 to 3.16 µM on h P2X3 (Table 2), 0.316 to 3.16 µM on h P2X3 (Table 3) and 3.16 to 31.6 µM at h P2X2/3.
Take `C[C@@H](Nc1ncnc2c(OCC3(C(=O)O)CCNCC3)cc(-c3ccc(F)cc3)cc12)c1cnc(C(F)(F)F)nc1` [Example 47, (R)-4-(((6-(4-fluorophenyl)-4-((1-(2-(trifluoromethyl)pyrimidin-5-yl)ethyl)amino)quinazolin-8-yl)oxy)methyl)piperidine-4-carboxylic acid hydrochloride]: the IC50 at h P2X3 (Table 2) is 0.316 to 3.16 µM; at h P2X3 (Table 3) it was 0.316 to 3.16 µM; on h P2X2/3 it was 3.16 to 31.6 µM.
`Cc1ccc(CNc2ncnc3c(OCc4nnc(C5CC5)o4)cc(-c4ccc(F)cc4)cc23)nn1` [Example 62, 8-((5-cyclopropyl-1,3,4-oxadiazol-2-yl)methoxy)-6-(4-fluorophenyl)-N-((6-methylpyridazin-3-yl)methyl)quinazolin-4-amine]: the IC50 on h P2X3 (Table 2) is < 0.316 µM; at h P2X3 (Table 3) it was < 0.316 µM; on h P2X2/3 it was 0.316 to 3.16 µM.
Regarding `COC(=O)N1CCC(Oc2cc(-c3ccc(F)cc3)cc3c(NCc4ccc(C)nn4)ncnc23)CC1` [Example 65, Methyl 4-[6-(4-fluorophenyl)-4-[(6-methylpyridazin-3-yl)methylamino]quinazolin-8-yl]oxypiperidine-1-carboxylate], the values for the IC50 on h P2X3 (Table 2), at h P2X3 (Table 3) and on h P2X2/3 were 0.316 to 3.16 µM, 0.316 to 3.16 µM and 3.16 to 31.6 µM, respectively.
With `COC(=O)N1CCC(Oc2cc(-c3ccc(F)cc3)cc3c(NCc4ccc(C)nn4)ncnc23)C1` (stereo not drawn) [Example 68, Methyl 3-[6-(4-fluorophenyl)-4-[(6-methylpyridazin-3-yl)methylamino]quinazolin-8-yl]oxypyrrolidine-1-carboxylate], the figures for the IC50 on h P2X3 (Table 2), on h P2X3 (Table 3) and at h P2X2/3 were 0.316 to 3.16 µM, 0.316 to 3.16 µM and 3.16 to 31.6 µM, respectively.
